The nature of data set [1]: n-octanol/water distribution coefficient, shake-flask. Particulars: n-octanol/20 mM phosphate buffer, pH = 7.4, t = 25 °C. Format: physicochemical. The text has this:
The bioactive compounds must cross the cell membrane, which is influenced by their lipophilicity. Therefore, we characterized the lipophilicity of the complexes using n-octanol–water partitioning at three different chloride ion concentrations at pH 7.4. As the H2O/Cl^– exchange alters the charge of the complexes, it consequently affects their lipophilicity. The ratio of chlorido and aqua complexes depends on the actual Cl^– concentration and the chloride affinity of the complex. Chloride ion concentrations were chosen to mimic physiological conditions, specifically those found in blood (100 mM), cytosol (24 mM), and the nucleus (4 mM).
The traditional shake-flask method was used to obtain distribution coefficients of the ligands as well as of the complexes in n-octanol/buffered aqueous solution (20 mM phosphate, pH = 7.4) at different chloride ion concentrations (4, 24, and 100 mM) using UV–vis spectrophotometry (Agilent Cary 8454 diode array spectrophotometer) for the analysis. The compounds were dissolved in buffered aqueous solutions previously saturated with n-octanol. Then the aqueous and n-octanol phases were gently mixed in different volume ratios (using 1:60 for the ligands, 1:10 for the RhCp* and the RuCym complexes ratios of n-octanol to buffered aqueous solution volume) for 4 h, followed by phase separation. Then the UV–vis spectrum of the original aqueous sample and the aqueous and n-octanol phases was recorded and distribution coefficients (D) were calculated according to the formula described in our former work in detail.

For a further data set, the system named is MCF-7. The experiment in a line: PrestoBlue cytotoxicity assay. Format: cell-based. As for the experimental part:
(§1) MDA-MB-231 breast adenocarcinoma and MCF-7 and T-47D invasive breast carcinomas were purchased from the Developmental Therapeutic Program of the National Cancer Institute (NIH, USA), and they were cultured in RPMI medium (Thermo Fisher). MES–SA and MES–SA/Dx5 uterine sarcoma cell lines were purchased from American Type Culture Collection and were kept in DMEM (Thermo Fisher). MES–SA/B1 was created by the transfection of the human MDR1 gene in MES–SA, and MES–SA mCherry, MES–SA/B1 mOrange, and MES–SA/Dx5 eGFP were engineered to stably express the respective fluorescent proteins, as described previously. Culture media were supplemented with 10% fetal bovine serum, 2 mM L-glutamine, 100 units/mL penicillin, and 100 μg/mL streptomycin (Thermo Fisher). Cells were kept at 37 °C under 5% CO2 and were negative for mycoplasma infection.
(§2) Cytotoxicity of the nonfluorescent cancer cells (MDA-MB-231, MCF-7, T-47D) were assessed with PrestoBlue cell viability reagent (Thermo Fisher). Briefly, 2500 cells/well were seeded on 384-well plates, and then the next day drugs were added. After 72 h incubation, PrestoBlue was added in a 10% final concentration, and after an hour of additional incubation, plates were measured with a PerkinElmer EnSpire plate reader at 555 nm/585 nm excitation/emission wavelengths. Fluorescent cells (MES-SA mCherry, MES-SA/B1 mOrange, MES-SA/Dx5 eGFP) were admixed before seeding on 384-well plates at 800 cells/well density each, thus altogether 2400 cells/well. Drugs were added the following day, and the intensity of the fluorescent proteins were measured after 144 h incubation at the respective fluorescent channels (excitation/emission: eGFP: 485 nm/510 nm; mCherry: 585 nm/610 nm; mOrange: 545 nm/567 nm). pIC50 values were calculated by a custom program written by Judit Sessler in C#. IC50 values and standard deviation were calculated from average pIC50 values from at least 3 independent measurements. Since the IC50 values were obtained through nonlinear regression fitting of the viability vs. log(concentration) data, the resulting confidence intervals are inherently asymmetric (see pIC50 values and their corresponding SD in Tables S5 and S6).

The next data set has as its system T47D. The experiment in a line: PrestoBlue cytotoxicity assay. Format: cell-based. On the procedure: as §1, §2
A further data set concerns MDA-MB-231. Description: PrestoBlue cytotoxicity assay. Format: cell-based. On the procedure:
as §1, §2

In another data set the test system is MES-SA mCherry. Description: fluorescent triple coculture cytotoxicity assay. It is filed as cell-based, human. To be noted: for IC50: MES-SA mCherry, coculture, read-out: IC50; for pIC50 (mean): Mes-Sa mCherry, Table S6.
From the text: (§3) Cytotoxicity of the compounds were further tested also in an in vitro MDR model system, consisting of an MES-SA uterine sarcoma cell line, and its P-gp (ABCB1) overexpressing variants MES-SA/B1, that was genetically engineered to express P-gp, and MES-SA/Dx5, which acquired a P-gp-mediated MDR phenotype due to selection in doxorubicin. , The expression of different fluorescent proteins in each line (mCherry, mOrange, or eGFP) allowed coculturing of these three cell lines, providing more relevant data compared to monocultures, as the interaction between parental and resistant phenotypes is reflected in cytotoxicity.
(§4) Cytotoxicity of nanoformulated [RhCp*(BP)-Cl]-Cl with cross-linked HSA and HTP carriers was tested against the previously introduced triple coculture of fluorescent MES-SA cells with a slight difference. Namely, the media containing the dissolved products were removed from the wells, and fresh media was added prior to the measurement as the presence of cross-linked HSA and HTP formulations interfered with the fluorescence of the cells.
as §1
as §2, with “Fluorescent cells (MES-SA mCherry, MES-SA/B1 mOrange, MES-SA/Dx5 eGFP) were admixed before seeding on 384-well plates at 800 cells/well density each, thus altogether 2400 cells/well.” left out

In another data set the test system is MES-SA/B1-mOrange. Description: fluorescent triple coculture cytotoxicity assay. It is filed as cell-based, human. Particulars: for IC50: MES-SA/B1-mOrange, coculture, read-out: IC50; for pIC50 (mean): Mes-Sa/B1 mOrange, Table S6; for SR (MES-SA/B1): selectivity ratio versus parental MES-SA.
From the text: as §3, §4, §1
as §2, with “Fluorescent cells (MES-SA mCherry, MES-SA/B1 mOrange, MES-SA/Dx5 eGFP) were admixed before seeding on 384-well plates at 800 cells/well density each, thus altogether 2400 cells/well.” left out

The test system of a further data set is MES-SA/Dx5-eGFP. Description: fluorescent triple coculture cytotoxicity assay. Format: cell-based, human. To be noted: for IC50: MES-SA/Dx5-eGFP, coculture, read-out: IC50; for pIC50 (mean): Mes-Sa/Dx5 eGFP, Table S6; for SR (MES-SA/Dx5): selectivity ratio versus parental MES-SA.
From the text: as §3, §4, §1
as §2, with “Fluorescent cells (MES-SA mCherry, MES-SA/B1 mOrange, MES-SA/Dx5 eGFP) were admixed before seeding on 384-well plates at 800 cells/well density each, thus altogether 2400 cells/well.” left out

Where [2] appears, read: 72 h, 384-well plate, read-out: IC50.
The mark [3] stands for this setting: 96-well plate, media replaced before measurement.

The results in this text go back to article PMC12308784, “Organometallic Half-Sandwich Complexes of 1,10-Phenanthroline Derivatives with Improved Solubility, Albumin-Binding, and Nanoformulation Potential Targeting Drug Resistance in Cancer” (Inorganic Chemistry, 2025).

Read-outs that look alike come from different tables or passages of the source.

As a reminder, the IC50 is the concentration that gives 50% inhibition. For the substance “[Rh(III)(η^5-C5Me5)(bathophenanthroline)Cl]Cl [RhCp*BP]”, the logD result in data set [1] (c(Cl–) = 4 mM) is reported as “+0.82 ± 0.01”; in data set [1] (c(Cl–) = 24 mM), “+1.35 ± 0.03”. In addition, the 50% inhibitory concentration (IC50) stood at 14.9 µM in the data set with MCF-7 (setting [2]); 5.28 µM in the data set on T47D (setting [2]); 4.68 µM with MDA-MB-231 (setting [2]); 2.9 µM with MES-SA mCherry (setting [3]); 1.56 µM with MES-SA mCherry (384-well plate, 144 h, listed as [RhCp*(BP)Cl]Cl); 2.43 µM with MES-SA/B1-mOrange (setting [3]). Further, the IC50 with MES-SA/B1-mOrange (384-well plate, 144 h) turned out to be 1.37 µM; with MES-SA/Dx5-eGFP (setting [3]), 1.77 µM; in the data set on MES-SA/Dx5-eGFP (384-well plate, 144 h) it was 0.23 µM. Also, the “pIC50 (mean)” value in the data set with MCF-7 (Table S5) was 4.83; in the data set with T47D (Table S5) it was 5.28; in the data set with MDA-MB-231 (Table S5) it was 5.33; with MES-SA mCherry (96-well plate) it was 5.54; in the data set with MES-SA mCherry (384-well plate) it was 5.81; in the data set with MES-SA/B1-mOrange (96-well plate) it was 5.61. Further, the “pIC50 (mean)” value with MES-SA/B1-mOrange (384-well plate) is 5.86; with MES-SA/Dx5-eGFP (96-well plate), 5.75; with MES-SA/Dx5-eGFP (384-well plate), 6.63. The figures for the “SR (MES-SA/B1)” value in the data set with MES-SA/B1-mOrange (96-well plate) and in the data set with MES-SA/B1-mOrange (384-well plate) were 1.2 and 1.1, respectively. The entries for the “SR (MES-SA/Dx5)” value in the data set with MES-SA/Dx5-eGFP (96-well plate) and with MES-SA/Dx5-eGFP (384-well plate) were 1.6 and 6.7, respectively.
